OCC1(O)OC[C@@H](O)[C@@H](O)[C@H]1O (some centres undefined)
solubility (mole fraction)
Settings	283.15 K	288.15 K	293.15 K	298.15 K	303.15 K	308.15 K	313.15 K	318.15 K	323.15 K
in 2-butanone	0.000516	0.000587	0.000946	0.00144	0.00198	0.00264	0.0033	0.00464	0.00552
in acetone	0.000606	0.000752	0.00104	0.00158	0.00219	0.00299	0.00376	0.0049	–
in acetonitrile	0.000226	0.000283	0.000367	0.00047	0.000627	0.000861	0.00109	0.00139	0.00176
in ethanol	0.00369	0.00446	0.00588	0.00746	0.00899	0.0116	0.0147	0.018	0.0222
in ethyl acetate	0.00077	0.000993	0.00128	0.00173	0.00217	0.00257	0.00327	0.00379	0.00449
in ethyl formate	0.000243	0.000356	0.000493	0.000697	0.00109	0.00151	0.00193	0.00275	0.00346
in isopropanol	0.00147	0.00193	0.00254	0.00368	0.00507	0.00673	0.00893	0.0112	0.0143
in methanol	0.0162	0.0178	0.0212	0.0273	0.0356	0.0512	0.0705	0.0895	0.116
in methyl acetate	0.000227	0.000298	0.000389	0.000619	0.000851	0.00105	0.00139	0.00187	0.00231
in n-butanol	0.00111	0.00125	0.0018	0.0024	0.00329	0.00456	0.00579	0.00747	0.00952
in n-butyl acetate	0.000243	0.000359	0.000443	0.000593	0.000796	0.001	0.00131	0.00165	0.002
in n-hexanol	0.000659	0.000835	0.000961	0.00143	0.00216	0.00301	0.004	0.00509	0.00652
in n-pentanol	0.00133	0.00134	0.0017	0.00202	0.00269	0.00356	0.00448	0.00561	0.00721
in n-propanol	0.0015	0.00191	0.00234	0.00335	0.00446	0.00567	0.00751	0.00956	0.0121
in sec-butanol	0.001	0.00178	0.00238	0.00324	0.0045	0.00617	0.0079	0.0105	0.0135

From BigSolDB 2.1
